The values that follow come from PubChem BioAssay (NCI).

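Grown in 96-well plates, cells were treated for 48 hours with each compound at five concentrations. Insufficient inhibition: endpoint recorded as highest concentration tested. Abbreviation: GI50, concentration required for 50% inhibition of growth. TGI: total growth inhibition.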

For orientation: TGI means the concentration giving total growth inhibition. Low readings indicate greater sensitivity of the cells, high ones lower sensitivity of the cells. As usually defined, the GI50 is the concentration that inhibits growth by half.

What all share (experiment): DTP human tumour cell line panel, 48 h
Assay [1] concerns NCI-H226 lung.
In assay [2] the test system is TK-10 renal.
The test system of assay [3] is SF-295 CNS.
Assay [4] deals with IGROV1 ovarian.
Assay [5] deals with HS 578T breast.
Assay [6] has as its system T-47D breast.
Assay [7] concerns OVCAR-5 ovarian.
Assay [8] has as its system SK-MEL-5 melanoma.
Assay [9] has as its system RPMI-8226 leukemia.
Assay [10] deals with HL-60(TB) leukemia.

Consider `COc1ccc(S(=O)(=O)N2C(=O)CCC2C(=O)NN)cc1` (centres undefined), for which the TGI in assay [1], in assay [2], in [3], in assay [4], in [5] and in assay [6] was greater than 100 µM throughout. The total growth inhibition concentration (TGI) in assay [7], in assay [8], in assay [9] and in assay [10] was greater than 100 µM each time.

Consider `Cc1cc2c([N+](=O)[O-])cc3c(c2o1)C(=O)C=CC3=O`, for which the TGI in [1] is greater than 75.1 µM; in [2], 5.72 µM; in assay [3], 23 µM; in assay [4] it was 26.6 µM; in assay [5] it was 54.8 µM; in assay [6], greater than 22.1 µM. The TGI in assay [7] was 35.1 µM; in [8], 28.1 µM; in [9], greater than 100 µM.

As for `Cc1cc(-c2nc3ccccc3s2)ccc1NC(=O)[C@@H](N)CCCCN`, the total growth inhibition concentration (TGI) in assay [1] was determined as 17.8 µM; in assay [2] it was 23.2 µM; in assay [3] it was 10.6 µM; in assay [4], 17.2 µM; in assay [5] it was 45.3 µM; in assay [6] it was 1.14 µM. Besides, the concentration for total growth inhibition (TGI) in assay [7] is 25.7 µM; in assay [8] it was 28 µM.

For the molecule `COC(C)(C)[C@@H](O)[C@H]1C[C@H](C)[C@@]2(CC[C@]3(C)[C@@H]2CC[C@@H]2[C@@]4(C)CC[C@@H](OC(C)=O)C(C)(C)[C@@H]4C[C@@H](OC4OC(COC(C)=O)C(O)C(O)C4O)[C@]23C)O1` (some centres undefined), the total growth inhibition concentration (TGI) in assay [1] is 17.5 µM; in [2], 24.6 µM; in [3], 16.5 µM; in assay [4] it was 16.6 µM; in assay [5], 23.7 µM; in assay [6], 15.1 µM. For the same molecule, the TGI in [7] is 7.18 µM; in [8] it was 15.1 µM; in assay [9], 5.7 µM; in [10] it was 4.63 µM.

On to `COc1cc2cc(Oc3ccc(NC(=O)c4cc(C(F)(F)F)cc(C(F)(F)F)c4)cc3)c(C)nc2cc1OC`, for which the GI50 in assay [1] was 6.2 µM; in assay [2], 3.82 µM; in [3], 1.64 µM; in assay [4], 4.63 µM; in [5], 9.13 µM; in assay [6], 2.24 µM. For the same molecule, the GI50 was greater than 50 µM in assay [7], 2.76 µM in [8], 1.57 µM in assay [9] and 3.51 µM in [10]. The total growth inhibition concentration (TGI) in assay [1], in assay [2], in [3], in assay [4], in assay [5] and in assay [6] was greater than 50 µM throughout. The TGI in assay [7], in [8], in [9] and in assay [10] was greater than 50 µM in each case.

`COC(=O)CN1c2nc(C#N)c(C#N)nc2N(CC(=O)OC)c2nc(C#N)c(C#N)nc21`: the concentration for total growth inhibition (TGI) in [1] is greater than 100 µM; in assay [2], 6.78 µM; in assay [3], 43.5 µM; in [4], 23.4 µM; in assay [5] it was 39.6 µM; in assay [6] it was 8.6 µM. The TGI in assay [7] was 22.6 µM; in assay [8], greater than 53.8 µM; in [9], greater than 100 µM; in assay [10], 5.61 µM.

Regarding `Clc1ccc(CSCCc2ccncc2)cc1Cl`, the TGI in assay [1] was 49.2 µM; in assay [2] it was greater than 100 µM; in assay [3], 41.8 µM; in [4], 52.2 µM; in assay [5], 53.8 µM; in [6] it was greater than 100 µM. The total growth inhibition concentration (TGI) is 66.8 µM in [7], 29.9 µM in assay [8], 40.3 µM in assay [9] and 40 µM in assay [10].

With `COc1nc2ncc([C@@H](OC(C)=O)[C@@H](COC(C)=O)OC(C)=O)nc2c(=O)[nH]1`, the TGI in assay [1], in assay [2], in assay [3], in assay [4], in assay [5] and in assay [6] was greater than 100 µM throughout. In addition, the concentration for total growth inhibition (TGI) in [7], in assay [8], in assay [9] and in assay [10] was greater than 100 µM throughout.

As to `CNc1ncnc2c1cnn2COCC(O)CO` (centres undefined), the total growth inhibition concentration (TGI) in assay [1], in [2], in assay [3], in assay [4], in assay [5] and in assay [6] was greater than 100 µM in each case. The TGI in [7], in [8] and in assay [9] was greater than 100 µM each time.

On to `CC(=O)c1cccn1/C=C(\OC(=O)OC(C)(C)C)c1ccc[nH]1`, for which the concentration for total growth inhibition (TGI) in assay [1], in assay [2], in [3], in assay [4], in [5] and in assay [6] was greater than 100 µM each time. In addition, the TGI in assay [7] is greater than 100 µM; in [8], greater than 100 µM; in assay [9] it was greater than 100 µM; in [10] it was 98.1 µM.

Take `Nc1ccc(-c2nc3ccccc3s2)cc1C(F)(F)F`: the GI50 in [1] is 15.3 µM; in assay [4] it was 2.6 µM; in [7] it was 17.5 µM. The total growth inhibition concentration (TGI) is 34.4 µM in assay [1]; 26 µM in assay [2]; 32.1 µM in assay [3]; 21.1 µM in assay [4]; 43.5 µM in [5]; 20.6 µM in assay [6]. Besides, the concentration for total growth inhibition (TGI) in assay [7] is 32.2 µM; in [8], 30.6 µM; in assay [9], 44.6 µM; in assay [10], 36.9 µM.

For the molecule `Cc1cn(-c2cc(C(=O)Nc3cccc(-n4ccc5c(NC(=O)c6ccccc6)nccc54)c3)cc(C(F)(F)F)c2)cn1`, the GI50 in assay [1] is 0.524 µM; in assay [2], 0.855 µM; in [3], 0.306 µM; in assay [4], 0.6 µM; in [5], 0.252 µM; in assay [6] it was 1.9 µM. Besides, the GI50 in assay [7] is 0.802 µM; in [8] it was 0.195 µM; in [9], 0.426 µM; in assay [10] it was 0.451 µM. Moreover, the TGI in [1] is 17.1 µM; in assay [2], 5.27 µM; in assay [3], 1.44 µM; in assay [4] it was 23 µM; in assay [5], 1.73 µM; in assay [6], 24.2 µM. Also, the TGI in assay [7] is 14.6 µM; in assay [8], 0.76 µM; in assay [9] it was 4.02 µM; in assay [10], 2.5 µM.
